Results published in the NIST ThermoML archive (doi:10.1016/j.jct.2005.03.020).
± gives the expanded uncertainty stated by the source.

Legend:
[1] = refractive index (Na D-line) (dimensionless); settings: 298.15 K; 101.33 kPa; Liquid; Standard Abbe refractometry
[2] = 298.15 K; 101.33 kPa; Liquid
[3] = excess molar enthalpy (molar enthalpy of mixing); xn = mol fraction of the nth substance listed; settings: 298.15 K, 101.33 kPa, Liquid
[4] = xn = mol fraction of the nth substance listed; settings: 298.15 K, 101.33 kPa, Liquid

Work on `CCCC(=O)OCC` [ethyl butanoate] yielded a refractive index [1] of 1.3895 ± 0.0008 and a mass density [2] of 873.54 ± 1.1 kg/m3.
In the case of `ClCCCCCCCl` [1,6-dichlorohexane] + CCOC(C)=O, the excess molar enthalpy ([3]; x2 = 0.0931) is reported as 0.00774 ± 0.00098 kcal/mol, the excess molar enthalpy ([3]; x2 = 0.1859) is reported as 0.0127 ± 0.00112 kcal/mol and the excess molar enthalpy ([3]; x2 = 0.2737) is reported as 0.0174 ± 0.00129 kcal/mol. The excess molar enthalpy ([3]; x2 = 0.3572) was 0.0197 ± 0.00136 kcal/mol, the excess molar enthalpy ([3]; x2 = 0.4323) was 0.0181 ± 0.00131 kcal/mol and the excess molar enthalpy ([3]; x2 = 0.4967) was 0.0149 ± 0.0012 kcal/mol. For the same molecule, the excess molar enthalpy ([3]; x2 = 0.5544) was 0.0101 ± 0.00105 kcal/mol, the excess molar enthalpy ([3]; x2 = 0.6025) was 0.00755 ± 0.00098 kcal/mol and the excess molar enthalpy ([3]; x2 = 0.6355) was 0.0054 ± 0.000908 kcal/mol. It also gave an excess molar enthalpy ([3]; x2 = 0.7013) of 0.00318 ± 0.000837 kcal/mol, an excess molar enthalpy ([3]; x2 = 0.769) of 0.00105 ± 0.000765 kcal/mol and an excess molar enthalpy ([3]; x2 = 0.8355) of -0.00227 ± 0.000813 kcal/mol. For the same molecule, the excess molar enthalpy ([3]; x2 = 0.9006) was -0.00363 ± 0.00086 kcal/mol, the excess molar enthalpy ([3]; x2 = 0.9593) was -0.00163 ± 0.000789 kcal/mol and the mass density ([4]; x2 = 0.0827) was 1053.91 ± 1.1 kg/m3. The mass density ([4]; x2 = 0.164) was 1043.7 ± 0.98 kg/m3, the mass density ([4]; x2 = 0.2386) was 1033.83 ± 0.9 kg/m3 and the mass density ([4]; x2 = 0.3112) was 1023.72 ± 0.83 kg/m3. The mass density ([4]; x2 = 0.3783) was 1013.89 ± 0.77 kg/m3, the mass density ([4]; x2 = 0.4437) was 1003.86 ± 0.71 kg/m3 and the mass density ([4]; x2 = 0.5071) was 993.65 ± 0.66 kg/m3. For the same molecule, the mass density ([4]; x2 = 0.5654) was 983.86 ± 0.62 kg/m3, the mass density ([4]; x2 = 0.6221) was 973.92 ± 0.58 kg/m3 and the mass density ([4]; x2 = 0.6754) was 964.14 ± 0.55 kg/m3. The mass density ([4]; x2 = 0.7291) was 953.86 ± 0.53 kg/m3, the mass density ([4]; x2 = 0.7774) was 944.24 ± 0.51 kg/m3 and the mass density ([4]; x2 = 0.824) was 934.61 ± 0.5 kg/m3. For the same molecule, the mass density ([4]; x2 = 0.8726) was 924.1 ± 0.49 kg/m3, the mass density ([4]; x2 = 0.9134) was 914.94 ± 0.48 kg/m3 and the mass density ([4]; x2 = 0.9552) was 905.22 ± 0.48 kg/m3.
Work on `ClCCCCCCCl` [1,6-dichlorohexane] + CCOC=O yielded a mass density ([4]; x2 = 0.1021) of 1054.55 ± 1.2 kg/m3, a mass density ([4]; x2 = 0.1921) of 1045.86 ± 1.2 kg/m3 and a mass density ([4]; x2 = 0.2781) of 1036.7 ± 1.2 kg/m3. It also gave a mass density ([4]; x2 = 0.357) of 1027.68 ± 1.3 kg/m3, a mass density ([4]; x2 = 0.4266) of 1019.06 ± 1.3 kg/m3 and a mass density ([4]; x2 = 0.4923) of 1010.37 ± 1.3 kg/m3. It also gave a mass density ([4]; x2 = 0.5555) of 1001.35 ± 1.3 kg/m3, a mass density ([4]; x2 = 0.6677) of 983.71 ± 1.4 kg/m3 and a mass density ([4]; x2 = 0.7169) of 975.18 ± 1.4 kg/m3. The mass density ([4]; x2 = 0.7649) was 966.4 ± 1.4 kg/m3, the mass density ([4]; x2 = 0.8091) was 957.78 ± 1.4 kg/m3 and the mass density ([4]; x2 = 0.8515) was 949.08 ± 1.4 kg/m3. The mass density ([4]; x2 = 0.8915) was 940.41 ± 1.4 kg/m3, the mass density ([4]; x2 = 0.929) was 931.82 ± 1.4 kg/m3 and the mass density ([4]; x2 = 0.9647) was 923.23 ± 1.5 kg/m3.
Work on `ClCCCCCl` [1,4-dichlorobutane] + CCOC(=O)CC yielded a mass density ([4]; x2 = 0.0587) of 1117.82 ± 0.73 kg/m3, a mass density ([4]; x2 = 0.1153) of 1103.37 ± 0.7 kg/m3 and a mass density ([4]; x2 = 0.1718) of 1088.99 ± 0.68 kg/m3. For the same molecule, the mass density ([4]; x2 = 0.2299) was 1074.24 ± 0.65 kg/m3, the mass density ([4]; x2 = 0.2859) was 1060.13 ± 0.63 kg/m3 and the mass density ([4]; x2 = 0.3447) was 1045.32 ± 0.6 kg/m3. The mass density ([4]; x2 = 0.403) was 1030.76 ± 0.58 kg/m3, the mass density ([4]; x2 = 0.4615) was 1016.16 ± 0.56 kg/m3 and the mass density ([4]; x2 = 0.5233) was 1000.86 ± 0.54 kg/m3. The mass density ([4]; x2 = 0.5825) was 986.22 ± 0.54 kg/m3, the mass density ([4]; x2 = 0.6382) was 972.47 ± 0.55 kg/m3 and the mass density ([4]; x2 = 0.698) was 957.78 ± 0.56 kg/m3. The mass density ([4]; x2 = 0.8187) was 928.2 ± 0.59 kg/m3, the mass density ([4]; x2 = 0.8774) was 913.87 ± 0.6 kg/m3 and the mass density ([4]; x2 = 0.9378) was 899.14 ± 0.62 kg/m3.
